Experiments:
Experiment in all cases: radiometric filter-binding kinase assay
[1] = tested on: AKT2 (human), P31751 [S474D]
CAMKK2 (human) = CAMKK2 (human) (UniProt Q96RR4)
CHEK1 (human) = CHEK1 (human) (UniProt O14757)
CLK2 (human) = CLK2 (human) (UniProt P49760)
CSNK1D (human) = CSNK1D (human) (UniProt P48730)
DYRK1A (human) = DYRK1A (human) (UniProt Q13627)
EPHA4 (human) = EPHA4 (human) (UniProt P54764)
IGF1R (human) = IGF1R (human) (UniProt P08069)
IKBKE (human) = IKBKE (human) (UniProt Q14164)
IRAK4 (human) = IRAK4 (human) (UniProt Q9NWZ3)
Chain of IRAK4 (human) (Q9NWZ3 whole entry, looked up): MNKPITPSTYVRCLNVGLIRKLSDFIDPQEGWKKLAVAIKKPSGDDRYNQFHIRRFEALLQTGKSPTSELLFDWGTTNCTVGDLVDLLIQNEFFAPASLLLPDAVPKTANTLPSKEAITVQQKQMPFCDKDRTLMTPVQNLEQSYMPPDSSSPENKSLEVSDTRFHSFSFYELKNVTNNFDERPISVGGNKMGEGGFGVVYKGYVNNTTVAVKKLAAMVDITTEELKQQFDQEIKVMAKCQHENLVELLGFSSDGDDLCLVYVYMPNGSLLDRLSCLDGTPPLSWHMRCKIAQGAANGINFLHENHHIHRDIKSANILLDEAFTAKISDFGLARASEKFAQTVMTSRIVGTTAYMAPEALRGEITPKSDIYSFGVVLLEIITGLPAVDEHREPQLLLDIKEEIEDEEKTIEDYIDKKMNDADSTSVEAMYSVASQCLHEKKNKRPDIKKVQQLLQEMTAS

MAP3K7 TAB1 (human) = MAP3K7 TAB1 (human) (UniProt Q15750+O43318)
MAPK12 (human) = MAPK12 (human) (UniProt P53778)
MAPK14 (human) = MAPK14 (human) (UniProt Q16539)
Chain of MAPK14 (human) (Q16539 whole entry, looked up): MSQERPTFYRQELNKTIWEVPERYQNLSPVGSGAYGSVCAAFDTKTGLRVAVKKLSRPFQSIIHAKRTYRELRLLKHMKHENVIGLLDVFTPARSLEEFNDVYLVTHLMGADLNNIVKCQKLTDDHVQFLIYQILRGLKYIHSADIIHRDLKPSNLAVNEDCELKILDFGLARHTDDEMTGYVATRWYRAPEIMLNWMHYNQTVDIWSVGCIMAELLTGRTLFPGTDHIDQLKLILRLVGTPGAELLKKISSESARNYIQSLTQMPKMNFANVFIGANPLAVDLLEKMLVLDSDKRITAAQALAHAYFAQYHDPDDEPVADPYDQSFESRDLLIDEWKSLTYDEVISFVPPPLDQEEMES

MAPK15 (human) = MAPK15 (human) (UniProt Q8TD08)
MAPK3 (human) = MAPK3 (human) (UniProt P27361)
MAPKAPK2 (human) = MAPKAPK2 (human) (UniProt P49137)
Chain of MAPKAPK2 (human) (P49137 whole entry, looked up): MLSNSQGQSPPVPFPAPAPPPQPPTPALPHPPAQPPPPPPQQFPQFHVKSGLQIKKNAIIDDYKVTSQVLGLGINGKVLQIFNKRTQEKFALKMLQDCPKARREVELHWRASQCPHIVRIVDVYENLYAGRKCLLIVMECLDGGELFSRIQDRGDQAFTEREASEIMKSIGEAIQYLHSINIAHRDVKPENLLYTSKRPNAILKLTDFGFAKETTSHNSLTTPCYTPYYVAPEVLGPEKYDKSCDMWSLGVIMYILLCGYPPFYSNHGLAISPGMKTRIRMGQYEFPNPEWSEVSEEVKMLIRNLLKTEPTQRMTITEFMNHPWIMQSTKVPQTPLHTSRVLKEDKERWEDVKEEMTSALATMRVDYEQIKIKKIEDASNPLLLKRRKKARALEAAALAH

MARK1 (human) = MARK1 (human) (UniProt Q9P0L2)
MARK2 (human) = MARK2 (human) (UniProt Q7KZI7)
MST4 (human) = MST4 (human) (UniProt Q9P289)
NEK2 (human) = NEK2 (human) (UniProt P51955)
NEK6 (human) = NEK6 (human) (UniProt Q9HC98)
[2] = tested on: PAK2 (human), Q13177 [T402E]
PAK4 (human) = PAK4 (human) (UniProt O96013)
PAK6 (human) = PAK6 (human) (UniProt Q9NQU5)
PAK7 (human) = PAK7 (human) (UniProt Q9P286)
PIM2 (human) = PIM2 (human) (UniProt Q9P1W9); conditions: compound 1.0 µM
PIM3 (human) = PIM3 (human) (UniProt Q86V86)
PKN2 (human) = PKN2 (human) (UniProt Q16513)
Chain of PKN2 (human) (Q16513 whole entry, looked up): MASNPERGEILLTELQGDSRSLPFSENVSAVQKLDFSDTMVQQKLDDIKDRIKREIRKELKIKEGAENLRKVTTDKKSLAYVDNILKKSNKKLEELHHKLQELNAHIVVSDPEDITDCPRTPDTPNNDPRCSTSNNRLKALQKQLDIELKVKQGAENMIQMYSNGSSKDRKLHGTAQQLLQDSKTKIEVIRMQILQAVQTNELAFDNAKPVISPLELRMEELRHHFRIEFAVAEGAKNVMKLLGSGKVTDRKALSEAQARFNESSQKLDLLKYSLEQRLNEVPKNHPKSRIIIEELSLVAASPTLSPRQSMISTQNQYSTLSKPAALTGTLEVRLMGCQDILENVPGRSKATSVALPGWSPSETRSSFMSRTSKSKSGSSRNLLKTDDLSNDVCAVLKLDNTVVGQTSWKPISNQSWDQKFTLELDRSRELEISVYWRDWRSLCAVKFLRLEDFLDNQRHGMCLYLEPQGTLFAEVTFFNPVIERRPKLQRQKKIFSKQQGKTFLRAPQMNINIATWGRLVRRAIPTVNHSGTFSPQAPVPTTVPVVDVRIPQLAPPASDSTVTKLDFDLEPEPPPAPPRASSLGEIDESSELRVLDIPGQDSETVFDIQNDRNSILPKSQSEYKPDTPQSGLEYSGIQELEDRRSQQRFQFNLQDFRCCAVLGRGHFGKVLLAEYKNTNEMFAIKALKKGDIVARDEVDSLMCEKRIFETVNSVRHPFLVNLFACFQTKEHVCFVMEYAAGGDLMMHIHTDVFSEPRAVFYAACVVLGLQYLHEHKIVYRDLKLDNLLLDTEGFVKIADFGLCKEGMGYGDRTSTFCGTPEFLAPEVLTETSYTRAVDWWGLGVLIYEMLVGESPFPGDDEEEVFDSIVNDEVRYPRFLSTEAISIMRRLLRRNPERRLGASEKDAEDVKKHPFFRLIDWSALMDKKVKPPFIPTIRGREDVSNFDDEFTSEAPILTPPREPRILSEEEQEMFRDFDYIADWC

PLK1 (human) = PLK1 (human) (UniProt P53350)
RIPK2 (human) = RIPK2 (human) (UniProt O43353)
RPS6KA3 KD1 KD2 (human) = RPS6KA3 KD1 KD2 (human) (UniProt P51812)
Chain of RPS6KA3 KD1 KD2 (human) (P51812 whole entry, looked up): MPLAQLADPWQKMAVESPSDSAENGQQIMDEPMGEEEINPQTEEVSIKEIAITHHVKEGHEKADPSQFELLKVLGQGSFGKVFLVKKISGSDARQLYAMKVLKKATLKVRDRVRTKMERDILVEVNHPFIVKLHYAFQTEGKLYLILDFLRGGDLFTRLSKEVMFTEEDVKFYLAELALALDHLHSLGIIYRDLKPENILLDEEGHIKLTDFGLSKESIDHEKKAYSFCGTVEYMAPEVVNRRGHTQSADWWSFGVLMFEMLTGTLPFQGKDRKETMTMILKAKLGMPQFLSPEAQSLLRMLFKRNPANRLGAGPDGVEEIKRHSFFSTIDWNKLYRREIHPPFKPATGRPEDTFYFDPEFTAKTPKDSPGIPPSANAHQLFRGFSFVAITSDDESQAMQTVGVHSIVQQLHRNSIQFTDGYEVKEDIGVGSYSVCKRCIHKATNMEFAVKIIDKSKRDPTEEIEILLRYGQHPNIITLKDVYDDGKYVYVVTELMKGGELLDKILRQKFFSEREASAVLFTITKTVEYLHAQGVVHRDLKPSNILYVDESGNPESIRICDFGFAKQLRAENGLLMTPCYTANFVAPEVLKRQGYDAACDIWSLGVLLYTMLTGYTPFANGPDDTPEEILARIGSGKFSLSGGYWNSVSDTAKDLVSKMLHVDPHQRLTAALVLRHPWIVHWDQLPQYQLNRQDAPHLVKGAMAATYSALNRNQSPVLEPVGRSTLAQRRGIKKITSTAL

RPS6KA5 KD1 KD2 (human) = RPS6KA5 KD1 KD2 (human) (UniProt O75582)
[3] = tested on: SGK1 (human), O00141 [S422D]
SRPK1 (human) = SRPK1 (human) (UniProt Q96SB4)
HIPK3 (human) = HIPK3 (human) (UniProt Q9H422)

Chain of AKT2 (human), P31751 [S474D] (P31751 whole entry S474D, looked up): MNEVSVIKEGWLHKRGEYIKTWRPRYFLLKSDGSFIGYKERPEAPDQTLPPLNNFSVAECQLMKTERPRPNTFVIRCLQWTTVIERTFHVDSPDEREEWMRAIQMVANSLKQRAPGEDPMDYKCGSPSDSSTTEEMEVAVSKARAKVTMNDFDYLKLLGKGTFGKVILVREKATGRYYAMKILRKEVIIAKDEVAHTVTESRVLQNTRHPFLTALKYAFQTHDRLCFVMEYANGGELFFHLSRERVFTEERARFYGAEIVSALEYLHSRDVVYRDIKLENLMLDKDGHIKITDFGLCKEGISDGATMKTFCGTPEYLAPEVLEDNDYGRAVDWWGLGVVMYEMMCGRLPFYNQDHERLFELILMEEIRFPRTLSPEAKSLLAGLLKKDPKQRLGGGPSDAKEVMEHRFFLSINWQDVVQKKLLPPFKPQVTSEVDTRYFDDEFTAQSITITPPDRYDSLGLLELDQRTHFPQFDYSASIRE
Chain of EPHA4 (human) (P54764 whole entry, looked up): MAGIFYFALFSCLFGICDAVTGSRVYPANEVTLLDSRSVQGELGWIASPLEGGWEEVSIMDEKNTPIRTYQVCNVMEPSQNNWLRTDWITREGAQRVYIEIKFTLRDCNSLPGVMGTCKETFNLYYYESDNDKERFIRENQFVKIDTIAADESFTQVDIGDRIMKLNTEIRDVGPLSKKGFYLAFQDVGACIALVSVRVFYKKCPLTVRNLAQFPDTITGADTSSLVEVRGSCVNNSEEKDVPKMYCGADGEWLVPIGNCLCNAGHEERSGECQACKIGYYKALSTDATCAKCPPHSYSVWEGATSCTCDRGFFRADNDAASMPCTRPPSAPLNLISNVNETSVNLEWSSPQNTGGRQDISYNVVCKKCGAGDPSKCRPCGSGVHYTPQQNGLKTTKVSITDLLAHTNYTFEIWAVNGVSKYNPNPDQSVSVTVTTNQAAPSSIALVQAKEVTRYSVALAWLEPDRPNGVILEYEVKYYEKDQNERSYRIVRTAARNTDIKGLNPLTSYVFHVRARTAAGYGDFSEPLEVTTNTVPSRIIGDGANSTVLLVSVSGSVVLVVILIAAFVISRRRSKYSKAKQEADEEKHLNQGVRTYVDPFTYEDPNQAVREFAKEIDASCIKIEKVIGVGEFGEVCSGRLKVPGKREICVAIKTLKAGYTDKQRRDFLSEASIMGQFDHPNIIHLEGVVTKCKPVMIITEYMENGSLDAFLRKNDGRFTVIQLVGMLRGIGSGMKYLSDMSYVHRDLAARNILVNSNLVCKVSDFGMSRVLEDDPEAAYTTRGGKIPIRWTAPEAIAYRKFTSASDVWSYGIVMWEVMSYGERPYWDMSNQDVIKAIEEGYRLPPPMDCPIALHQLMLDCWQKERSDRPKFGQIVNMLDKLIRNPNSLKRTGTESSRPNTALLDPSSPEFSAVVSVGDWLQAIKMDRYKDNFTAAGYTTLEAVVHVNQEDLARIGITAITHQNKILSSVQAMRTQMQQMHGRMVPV
Chain of CAMKK2 (human) (Q96RR4 whole entry, looked up): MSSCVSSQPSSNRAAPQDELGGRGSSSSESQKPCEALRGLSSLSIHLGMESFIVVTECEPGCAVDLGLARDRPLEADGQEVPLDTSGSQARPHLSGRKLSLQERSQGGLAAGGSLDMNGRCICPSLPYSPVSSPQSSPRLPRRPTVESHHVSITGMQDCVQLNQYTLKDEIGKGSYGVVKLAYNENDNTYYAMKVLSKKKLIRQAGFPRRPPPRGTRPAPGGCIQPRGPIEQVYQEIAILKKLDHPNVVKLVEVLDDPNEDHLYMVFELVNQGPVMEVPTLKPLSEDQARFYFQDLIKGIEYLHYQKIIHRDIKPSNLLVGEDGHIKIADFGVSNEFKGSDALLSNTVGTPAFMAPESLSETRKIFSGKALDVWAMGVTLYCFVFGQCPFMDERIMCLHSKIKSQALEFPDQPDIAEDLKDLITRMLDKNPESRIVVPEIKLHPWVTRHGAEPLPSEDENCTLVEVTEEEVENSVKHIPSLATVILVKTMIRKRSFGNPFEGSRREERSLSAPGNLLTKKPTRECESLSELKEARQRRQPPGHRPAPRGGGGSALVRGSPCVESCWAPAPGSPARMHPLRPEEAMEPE

Structure (SMILES): Nc1cccc2c1CN(C1CCC(=O)NC1=O)C2=O (stereo not given)
- residual activity ([1]; compound 1.0 µM): 85%
- residual activity ([1]; compound 10.0 µM): 94%
- residual activity (CAMKK2 (human); compound 1.0 µM): 92%
- residual activity (CAMKK2 (human); compound 10.0 µM): 84%
- residual activity (CHEK1 (human); compound 1.0 µM): 94%
- residual activity (CHEK1 (human); compound 10.0 µM): 82%
- residual activity (CLK2 (human); compound 1.0 µM): 104%
- residual activity (CLK2 (human); compound 10.0 µM): 98%
- residual activity (CSNK1D (human); compound 1.0 µM): 102%
- residual activity (CSNK1D (human); compound 10.0 µM): 97%
- residual activity (DYRK1A (human); compound 1.0 µM): 107%
- residual activity (DYRK1A (human); compound 10.0 µM): 99%
- residual activity (EPHA4 (human); compound 1.0 µM): 110%
- residual activity (EPHA4 (human); compound 10.0 µM): 124%
- residual activity (IGF1R (human); compound 1.0 µM): 106%
- residual activity (IGF1R (human); compound 10.0 µM): 106%
- residual activity (IKBKE (human); compound 1.0 µM): 119%
- residual activity (IKBKE (human); compound 10.0 µM): 99%
- residual activity (IRAK4 (human); compound 1.0 µM): 107%
- residual activity (IRAK4 (human); compound 10.0 µM): 110%
- residual activity (MAP3K7 TAB1 (human); compound 1.0 µM): 99%
- residual activity (MAP3K7 TAB1 (human); compound 10.0 µM): 104%
- residual activity (MAPK12 (human); compound 1.0 µM): 109%
- residual activity (MAPK12 (human); compound 10.0 µM): 108%
- residual activity (MAPK14 (human); compound 1.0 µM): 105%
- residual activity (MAPK14 (human); compound 10.0 µM): 103%
- residual activity (MAPK15 (human); compound 1.0 µM): 92%
- residual activity (MAPK15 (human); compound 10.0 µM): 98%
- residual activity (MAPK3 (human); compound 1.0 µM): 90%
- residual activity (MAPK3 (human); compound 10.0 µM): 94%
- residual activity (MAPKAPK2 (human); compound 1.0 µM): 79%
- residual activity (MAPKAPK2 (human); compound 10.0 µM): 92%
- residual activity (MARK1 (human); compound 1.0 µM): 98%
- residual activity (MARK1 (human); compound 10.0 µM): 100%
- residual activity (MARK2 (human); compound 1.0 µM): 99%
- residual activity (MARK2 (human); compound 10.0 µM): 104%
- residual activity (MST4 (human); compound 1.0 µM): 106%
- residual activity (MST4 (human); compound 10.0 µM): 112%
- residual activity (NEK2 (human); compound 1.0 µM): 97%
- residual activity (NEK2 (human); compound 10.0 µM): 96%
- residual activity (NEK6 (human); compound 1.0 µM): 105%
- residual activity (NEK6 (human); compound 10.0 µM): 96%
- residual activity ([2]; compound 1.0 µM): 101%
- residual activity ([2]; compound 10.0 µM): 103%
- residual activity (PAK4 (human); compound 1.0 µM): 102%
- residual activity (PAK4 (human); compound 10.0 µM): 107%
- residual activity (PAK6 (human); compound 1.0 µM): 102%
- residual activity (PAK6 (human); compound 10.0 µM): 104%
- residual activity (PAK7 (human); compound 1.0 µM): 86%
- residual activity (PAK7 (human); compound 10.0 µM): 77%
- residual activity (PIM2 (human)): 98%
- residual activity (PIM3 (human); compound 1.0 µM): 101%
- residual activity (PIM3 (human); compound 10.0 µM): 103%
- residual activity (PKN2 (human); compound 1.0 µM): 93%
- residual activity (PKN2 (human); compound 10.0 µM): 88%
- residual activity (PLK1 (human); compound 1.0 µM): 104%
- residual activity (PLK1 (human); compound 10.0 µM): 96%
- residual activity (RIPK2 (human); compound 1.0 µM): 97%
- residual activity (RIPK2 (human); compound 10.0 µM): 106%
- residual activity (RPS6KA3 KD1 KD2 (human); compound 1.0 µM): 93%
- residual activity (RPS6KA3 KD1 KD2 (human); compound 10.0 µM): 101%
- residual activity (RPS6KA5 KD1 KD2 (human); compound 1.0 µM): 91%
- residual activity ([3]; compound 1.0 µM): 91%
- residual activity (SRPK1 (human); compound 1.0 µM): 104%
- residual activity (SRPK1 (human); compound 10.0 µM): 104%

Structure (SMILES): COc1ccc(N(C(=O)Nc2c(C)cccc2C)c2cc(Nc3ccc(N4CCN(C)CC4)cc3)ncn2)c(OC)c1
- residual activity ([1]; compound 0.01 µM): 83%
- residual activity ([1]; compound 0.1 µM): 83%
- residual activity ([1]; compound 1.0 µM): 75%
- residual activity (CAMKK2 (human); compound 0.01 µM): 105%
- residual activity (CAMKK2 (human); compound 0.1 µM): 102%
- residual activity (CAMKK2 (human); compound 1.0 µM): 89%
- residual activity (CHEK1 (human); compound 0.01 µM): 95%
- residual activity (CHEK1 (human); compound 0.1 µM): 100%
- residual activity (CHEK1 (human); compound 1.0 µM): 86%
- residual activity (CLK2 (human); compound 0.01 µM): 97%
- residual activity (CLK2 (human); compound 0.1 µM): 100%
- residual activity (CLK2 (human); compound 1.0 µM): 108%
- residual activity (CSNK1D (human); compound 0.01 µM): 89%
- residual activity (CSNK1D (human); compound 0.1 µM): 85%
- residual activity (CSNK1D (human); compound 1.0 µM): 79%
- residual activity (DYRK1A (human); compound 0.01 µM): 100%
- residual activity (DYRK1A (human); compound 0.1 µM): 95%
- residual activity (DYRK1A (human); compound 1.0 µM): 93%
- residual activity (EPHA4 (human); compound 0.01 µM): 71%
- residual activity (EPHA4 (human); compound 0.1 µM): 12%
- residual activity (EPHA4 (human); compound 1.0 µM): 6%
- residual activity (HIPK3 (human); compound 0.01 µM): 80%
- residual activity (HIPK3 (human); compound 0.1 µM): 86%
- residual activity (HIPK3 (human); compound 1.0 µM): 74%
- residual activity (IKBKE (human); compound 0.1 µM): 94%
- residual activity (IKBKE (human); compound 1.0 µM): 102%
- residual activity (IRAK4 (human); compound 0.01 µM): 90%
- residual activity (IRAK4 (human); compound 0.1 µM): 97%
- residual activity (IRAK4 (human); compound 1.0 µM): 90%
- residual activity (MAP3K7 TAB1 (human); compound 0.1 µM): 110%
- residual activity (MAP3K7 TAB1 (human); compound 1.0 µM): 84%
- residual activity (MAPK12 (human); compound 0.01 µM): 110%
- residual activity (MAPK12 (human); compound 0.1 µM): 112%
- residual activity (MAPK12 (human); compound 1.0 µM): 105%
- residual activity (MAPK14 (human); compound 0.01 µM): 121%
- residual activity (MAPK14 (human); compound 0.1 µM): 79%
- residual activity (MAPK14 (human); compound 1.0 µM): 26%
- residual activity (MAPK15 (human); compound 0.01 µM): 108%
- residual activity (MAPK15 (human); compound 0.1 µM): 112%
- residual activity (MAPK15 (human); compound 1.0 µM): 94%
- residual activity (MAPK3 (human); compound 0.01 µM): 104%
- residual activity (MAPK3 (human); compound 0.1 µM): 101%
- residual activity (MAPK3 (human); compound 1.0 µM): 95%
- residual activity (MAPKAPK2 (human); compound 0.01 µM): 101%
- residual activity (MAPKAPK2 (human); compound 0.1 µM): 100%
- residual activity (MAPKAPK2 (human); compound 1.0 µM): 97%
- residual activity (MARK1 (human); compound 0.01 µM): 88%
- residual activity (MARK1 (human); compound 0.1 µM): 87%
- residual activity (MARK1 (human); compound 1.0 µM): 53%
- residual activity (MARK2 (human); compound 0.01 µM): 101%
- residual activity (MARK2 (human); compound 0.1 µM): 90%
- residual activity (MARK2 (human); compound 1.0 µM): 63%
- residual activity (MST4 (human); compound 0.01 µM): 100%
- residual activity (MST4 (human); compound 0.1 µM): 95%
- residual activity (MST4 (human); compound 1.0 µM): 78%
- residual activity (NEK2 (human); compound 0.01 µM): 112%
- residual activity (NEK2 (human); compound 0.1 µM): 93%
- residual activity (NEK2 (human); compound 1.0 µM): 95%
- residual activity (NEK6 (human); compound 0.01 µM): 102%
- residual activity (NEK6 (human); compound 0.1 µM): 90%
- residual activity (NEK6 (human); compound 1.0 µM): 91%
- residual activity ([2]; compound 0.01 µM): 87%
- residual activity ([2]; compound 0.1 µM): 59%
- residual activity ([2]; compound 1.0 µM): 18%
- residual activity (PAK4 (human); compound 0.01 µM): 116%
- residual activity (PAK4 (human); compound 0.1 µM): 97%
- residual activity (PAK4 (human); compound 1.0 µM): 94%
- residual activity (PAK6 (human); compound 0.01 µM): 94%
- residual activity (PAK6 (human); compound 0.1 µM): 101%
- residual activity (PAK6 (human); compound 1.0 µM): 88%
- residual activity (PAK7 (human); compound 0.01 µM): 95%
- residual activity (PAK7 (human); compound 0.1 µM): 91%
- residual activity (PAK7 (human); compound 1.0 µM): 72%
- residual activity (PIM2 (human)): 117%
- residual activity (PIM3 (human); compound 0.01 µM): 103%
- residual activity (PIM3 (human); compound 0.1 µM): 110%
- residual activity (PIM3 (human); compound 1.0 µM): 103%
- residual activity (PKN2 (human); compound 0.1 µM): 99%
- residual activity (PKN2 (human); compound 1.0 µM): 90%
- residual activity (PLK1 (human); compound 0.01 µM): 98%
- residual activity (PLK1 (human); compound 0.1 µM): 102%
- residual activity (PLK1 (human); compound 1.0 µM): 97%
- residual activity (RIPK2 (human); compound 0.01 µM): 77%
- residual activity (RIPK2 (human); compound 0.1 µM): 37%
- residual activity (RIPK2 (human); compound 1.0 µM): 8%
- residual activity (RPS6KA3 KD1 KD2 (human); compound 0.01 µM): 100%
- residual activity (RPS6KA3 KD1 KD2 (human); compound 0.1 µM): 92%
- residual activity (RPS6KA3 KD1 KD2 (human); compound 1.0 µM): 54%
- residual activity (RPS6KA5 KD1 KD2 (human); compound 0.01 µM): 104%
- residual activity (RPS6KA5 KD1 KD2 (human); compound 0.1 µM): 105%
- residual activity ([3]; compound 0.01 µM): 94%
- residual activity ([3]; compound 1.0 µM): 93%
- residual activity (SRPK1 (human); compound 0.01 µM): 96%
- residual activity (SRPK1 (human); compound 0.1 µM): 85%
- residual activity (SRPK1 (human); compound 1.0 µM): 90%

— the kinase profiling compilation of Christmann-Franck et al. (2016)
